Marks after values point to notes of the source that are not given here. No end group written: not given here.
B1: IFN-γ: recombinant mouse interferon-γ, Beijing Biotech Inc.; positive control immunostimulant (protein, UniProt P01580 23-155, looked up)
Interferon gamma: HGTVIESLESLNNYFNSSGIDVEEKSLFLDIWRNWQKDGDMKILQSQIISFYLRLFEVLKDNQAISNNISVIESHLITTFFSNSKAKKDAFMSIAKFEVNNPQVQRQAFNELIRVVHQLLPESSLRKRKRSRC

How the values were obtained:
Assay type in all cases: in vivo, BALB/c mice
T lymphocyte [1] = test: T lymphocyte transformation test (ConA, MTT) on spleen cells of treated mice; set-up: key: OD of assay wells divided by OD of control wells; conditions: IFN-γ and IL-2 groups 3×10^5 IU/kg/day, X ± SD
Description: (§1) The above substances were all dissolved in 0.5 ml saline and injected intraperitoneal (i.p.) for 15 continuous days, once per day.
(§2) Ten mice per group. The day after the last test substance administration, the mice were sacrificed by cervical dislocation. The spleen was isolated aseptically and manually dispersed in cold D-Hank's solution using an injection needle. The dispersed cell suspension was further sieved through a 100 gauge 150 μm diameter stainless steel sieve. After centrifugation at 200 g for 10 minutes, the supernatant was discarded. The cell pellet was re-suspended in 10 volume of Tris-NH4Cl buffer and then kept standing still for 10 minutes at room temperature. The suspended cells were collected by centrifugation at 150 g for 10 minutes. The cells were washed 2-4 times with cold D-Hank's solution by re-suspending and collecting by centrifugation with condition as described above. The washed cells were then diluted to the desired cell densities by RPMI-1640 culture medium, containing 10% fetal bovine serum.
(§3) Spleen cells of density 1×10^6/ml were placed onto a 96 wells cell culture plate, 100 μl/well, three parallel wells each of the assay sample and control sample per mouse. To the assay wells, 100 μl/well ConA of 100 μg/ml in RPMI-1640 was added, and 100 μl/well plain RPMI-1640 was used for the controls. The cells were incubated for 66 hrs at 37° C., 5% CO2. The cells were then pelleted by centrifugation at 150 g for 10 minutes.
(§4) 50 μl/well MTT of 1 mg/ml in RPMI-1640 was added to the cell pellet and the cells re-suspended by shaking for 2 minutes. The incubation was continued for 4 hours. The supernatant was discarded after centrifugation at 150 g for 10 minutes. 120 μl 40 mM HCl-2-propanol was added to the cell pellet and shaken for 3 minutes. to obtain OD570nm of each well referenced at 630 nm. An ELISA reader was used
(§5) Each mouse formed three assay wells and three control wells. The Stimulation Index (SI) of each mouse was obtained by first deriving the average OD of the three parallel wells, then dividing the value of the assay wells by the control wells.

T lymphocyte [2] = test: T lymphocyte IL-2 secretion test (HT-2 cell bioassay of ConA supernatant); conditions: IFN-γ and IL-2 groups 3×10^5 IU/kg/day, X ± SD
Description: as §1, §3
HT-2 cells at log phase were collected by centrifugation at 150 g for 10 minutes, and washed three times with cold Hank's solution by re-suspension and centrifugation. The collected HT-2 cells were re-suspended in RPMI-1640 and incubated at 37° C., 5% CO2 for 30 minutes. The cells were further washed twice with RPMI-1640 by re-suspension and centrifugation, and re-suspended to final concentration of 2×10^5/ml with RPMI-1640.
rIL-2 was diluted to the following concentration with RPMI-1640: 500 IU/ml, 250 IU/ml, 125 IU/ml, 62.5 IU/ml, 31.25 IU/ml, and […].
A 96 well cell culture plate was set up with three parallel wells per combination:
Negative control: 100 μl RPMI-1640+100 μl HT-2 cell suspension
rIL-2 standard: 100 μl rIL-2 solution+100 μl HT-2 cell suspension
Assay well: 100 μl diluted supernatant+100 μl HT-2 cell suspension
The plate was incubated at 37° C., 5% CO2 for 68 hours, then centrifuged at 150 g for 15 minutes and the supernatant removed. 100 μl 0.5 mg/ml MTT in RPMI-1640 without phenolsulfonphthalein was added into each well. After shaking for 3-4 minutes to re-suspend the cells, continue to incubate for another 4 hours. Samples were then centrifuged at 150 g for 15 minutes and the supernatant was removed. To each well, 120 μl 40 mM HCl-2-propanol was added, mixed for 3-4 minutes and OD analyzed at 570 nm, referenced at 630 nm with an ELISA plate reader.
The average OD of the three parallel wells of each dilution was taken and plotted against concentration on a semi-log paper, concentration on the X-axis. The concentration at 50% OD saturation was obtained for both the testing supernatant and rIL-2.

T lymphocyte [3] = test: T lymphocyte transformation in mice with ascitic fluid type liver cancer H22
Description: as §2, with “Healthy BALB/c mice were randomized into peptide group, rmIFN-γ group, rhIL-2 group, and saline group, 15” for “Ten”, “group, and prepared into H22 carrying mice model as described in section Method 3. After implantation of” for “group. The day after”, “cancer cells, the” for “last”, “substances were administered for 15 days,” for “substance administration,”, “killed” for “sacrificed”, “100-gauge” for “100 gauge”
as §3
as §4, with “3 minutes. Use an ELISA reader to obtain” for “3 minutes. to obtain”, “630 nm.” for “630 nm. An ELISA reader was used”
as §5

[4] = peptide 0.5 μg/kg/day i.p. 15 days
[5] = peptide 50 μg/kg/day i.p. 15 days
[6] = peptide 5 μg/kg/day i.p. 15 days
[7] = peptide 500 μg/kg/day i.p. 15 days

| Molecule | stimulation index (T lymphocyte transformation) (T lymphocyte [1]; [4]) | stimulation index (T lymphocyte transformation) (T lymphocyte [1]; [6]) | Stimulation index (T lymphocyte [3]; 0.5 μg/kg i.p. once per day) | activity of T lymphocyte in secreting IL-2 (T lymphocyte [2]; [7]) | stimulation index (T lymphocyte transformation) (T lymphocyte [1]; [7]) | activity of T lymphocyte in secreting IL-2 (T lymphocyte [2]; [4]) | other results |
| --- | --- | --- | --- | --- | --- | --- | --- |
| KAVGHLDDLPGAL [CMS008] | 1.7 ± 0.3 |  |  |  |  |  |  |
| FNFVPP [CMS003] |  | 1.6 ± 0.2 |  |  |  |  | activity of T lymphocyte in secreting IL-2 (T lymphocyte [2]; [5]): 86 ± 9*^ IU; stimulation index (T lymphocyte transformation) (T lymphocyte [1]; [5]): 2.2 ± 0.5*^@^ |
| PTTKTYFPHF [CMS001] |  | 1.7 ± 0.2 |  |  |  |  | activity of T lymphocyte in secreting IL-2 (T lymphocyte [2]; [5]): 60 ± 10 IU; stimulation index (T lymphocyte transformation) (T lymphocyte [1]; [5]): 2.2 ± 0.5*^@^ |
| Phe Val Asn Asp (FVND; listed as Sus scrofa) [CMS035] |  |  | 1.40 ± 0.13*^$ |  |  |  | Stimulation index (T lymphocyte [3]; 5 μg/kg i.p. once per day): 1.46 ± 0.16*^$ |
| PSIVGRPRHQGVM [CMS015] |  |  |  | 85 ± 17*^ IU | 1.9 ± 0.3*^@^ |  |  |
| Tyr Ser Leu (YSL; listed as Sus scrofa) [CMS024] |  |  | 1.46 ± 0.19*^$ |  |  |  | Stimulation index (T lymphocyte [3]; 5 μg/kg i.p. once per day): 1.45 ± 0.21*^$ |
| LRVAPEEHPTL [CMS009] |  |  |  | 114 ± 13*^@^ IU | 1.7 ± 0.2 |  |  |
| Pro Glu Asn Phe (PENF; listed as Sus scrofa) [CMS034] |  | 1.5 ± 0.2 | 1.37 ± 0.10*^$ |  |  | 85 ± 10*^ IU |  |
| VGMGQKDSY [CMS019] |  |  | 1.50 ± 0.19*^$ |  | 1.8 ± 0.3 |  |  |
| VAPEEHPTLLTEAPLNPK [CMS010] | 1.7 ± 0.3 |  |  | 125 ± 17*^@^ IU | 2.0 ± 0.3*^@^ | 66 ± 11 IU | Stimulation index (T lymphocyte [3]; 500 μg/kg i.p. once per day): 1.45 ± 0.21*^$ |
| RVAPEEHPTL [CMS011] | 1.6 ± 0.4 |  |  |  |  | 101 ± 19*^@^ IU |  |
| B1 | 1.6 ± 0.2 | 1.6 ± 0.2 |  | 100 ± 18 IU | 1.6 ± 0.2 | 87 ± 15 IU | Stimulation index (T lymphocyte [3]; 3 × 10^5 IU/kg i.p. once per day): 1.27 ± 0.14; activity of T lymphocyte in secreting IL-2 (T lymphocyte [2]; [6]): 96 ± 14 IU; activity of T lymphocyte in secreting IL-2 (T lymphocyte [2]; [5]): 99 ± 16 IU; stimulation index (T lymphocyte transformation) (T lymphocyte [1]; [5]): 1.7 ± 0.2 |

Reference: US7718768B2, “Biologically active peptide [sequence]” (CMS Peptides Patent Holding Company Limited, priority 2001, dated 2010)
